Reference: patent US9493485B2, “Spirocyclic dihydro-thiazine and dihydro-oxazine BACE inhibitors, and compositions and uses thereof” (Imago Pharmaceuticals, Inc., priority 2012, dated 2016)
Where two headings read alike, the source gives them in different places.

What was measured:
BACE1 [1] = biological target: T1, BACE1 (Homo sapiens (Human), UniProt P56817); experiment: BACE1 FP assay; assay type: biochemical; conditions: pH 4.5
Method: (§1) BACE1 activity can be assessed in an AlphaScreen® assay. Compounds to be assessed (e.g. compounds as described in the above examples) are serially diluted 1:4 in DMSO, then plated by diluting 10 μL of compound with 40 μl of assay buffer (1×PBS, 0.01% Tween-20, pH 7.0, 0.05% BSA). The diluted compound is transferred (4 μL per well) to a 386 well assay plate and 4 μL of BACE1 enzyme ([…]) is added and incubated for 15 minutes. This assay uses a probe that is a BACE1 binding sight ligand linked to biotin, which can be displaced by test compound dependent on compound binding affinity. This of biotinylated probe (4 μL) is added and incubated for 1 hour, followed with 4 μL of donor and acceptor bead mixture and incubated for 2 hours. The fluorescent signal is read on a plate reader and the value as a function of compound concentration is used to determine the IC50. Compounds are also assessed for BACE1 and Cathepsin D activity using an FP Assay. Compounds to be assessed (e.g. compounds as described in the above examples) are serially diluted 1:3 with DMSO and each concentration point is transferred to a 96 well plate, 6 μL per well, followed by addition of 194 μL of assay buffer (100 mM sodium acetate, pH 4.5 with 0.001% Tween-20). A 10 μL compound sample from this plate is transferred to a well of a 384 well plate and combined with 10 μL per well of BACE1 enzyme (0.3 nM in assay buffer) or Cathepsin D enzyme (1.8 nM in assay buffer) and the plate is incubated at room temperature for 30 minutes.

[2] = tested on: BACE1 inhibition in HEKp293 cells transfected with APP751 gene (SWE293); experiment: SWE293 cellular assay: reduction of Aβ peptide production, ELISA; assay type: cell-based; conditions: Homo sapiens, read-out: SWE293 ED50
Method: BACE1 inhibition is also assessed in a cellular assay. HEKp293 cells transfected with APP751 gene (SWE293, American Type Culture Collection CRL-1563) are used to assess compounds for reduction in levels of Aβ peptide production. SWE293 cell medium is DMEM supplemented with 10% fetal bovine serum and 2 mM L-glutamine, 1.0 mM sodium pyruvate, 25 mM Hepes Buffer, 0.4 mg/mL geneticin (G418, Gibco BRL 860-181IIJ). Cells are maintained diluting 1:10 for 4 days in T-150 flask and 35 mL of cell media. For plating, cells are rinsed with 5 mL of 1×PBS, trypsinized with 4 mL of 0.05% Tripsin for 1 minute, and 12 mL of cell media is added. These are centrifuged at 1000 rpm for 4 minutes and the media aspirated, then 8 mL of media per flask is added. Based on cell count, appropriate amounts of cell and cell media are combined, and 180 μl per well are plated (96 well) and the plates are incubated overnight at 37° C., 5% CO2. Compounds to be tested are serially diluted 1:3 in DMSO and twice in media (without G418) in V-bottom plates and incubated at room temperature. Plated cells are washed with media, 3×50 μL per well and 17 μL per well of appropriate dilution of compound is added. Plates are incubated for 2 hours, and the wash steps, compound addition and incubation are repeated. Sample is transferred to capture plate (prepared with 266 antibody, see e.g. Johnson-Wood et al., PNAS February 1997, 94: 1550-1555), along with a standard curve of Aβ-40. ELISA assay is used to assess Aβ levels, washing with TBS, 0.05% Tween20 pH 7.5, then adding 1.3 mg/mL 3D6 antibody 1:900 in specimen diluents with thimericol is added (100 μl per well) and incubated for 1 hour. Wash step is repeated and Streptavidin-AP diluted 1:1000 in specimen diluents with thimerisol is added (100 μL per well) and incubated for 1 hour. Wash step is repeated and fluorescent substrate is added, 100 μL per well and incubated for 10 minutes followed by reading the fluorescent signal on a plate reader.

Cathepsin D = Cathepsin D (Homo sapiens (Human), UniProt P07339); experiment: Cathepsin D FP assay; assay type: biochemical; conditions: pH 4.5, read-out: CatD FP IC50
Chain of Cathepsin D (P07339 65-412, species assumed): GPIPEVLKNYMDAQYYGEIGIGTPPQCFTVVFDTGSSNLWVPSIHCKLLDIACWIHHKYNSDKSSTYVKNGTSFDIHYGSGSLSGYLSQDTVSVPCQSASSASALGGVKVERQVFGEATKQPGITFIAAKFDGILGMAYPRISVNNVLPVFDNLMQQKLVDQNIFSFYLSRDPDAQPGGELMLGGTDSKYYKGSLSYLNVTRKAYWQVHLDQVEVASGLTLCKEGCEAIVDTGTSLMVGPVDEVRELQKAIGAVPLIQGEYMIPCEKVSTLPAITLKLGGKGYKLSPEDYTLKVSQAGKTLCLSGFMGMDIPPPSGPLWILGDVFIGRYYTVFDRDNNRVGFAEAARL
Method: as §1

BACE1 [3] = biological target: T1, BACE1; experiment: BACE1 AlphaScreen assay (displacement of biotinylated BACE1 binding site probe); conditions: read-out: BACE1 AS IC50
Method: as §1

[4] = dose at which Aβ level is reduced by 50%, HEKp293 SWE293 cells

T1 sequence (P56817 46-501): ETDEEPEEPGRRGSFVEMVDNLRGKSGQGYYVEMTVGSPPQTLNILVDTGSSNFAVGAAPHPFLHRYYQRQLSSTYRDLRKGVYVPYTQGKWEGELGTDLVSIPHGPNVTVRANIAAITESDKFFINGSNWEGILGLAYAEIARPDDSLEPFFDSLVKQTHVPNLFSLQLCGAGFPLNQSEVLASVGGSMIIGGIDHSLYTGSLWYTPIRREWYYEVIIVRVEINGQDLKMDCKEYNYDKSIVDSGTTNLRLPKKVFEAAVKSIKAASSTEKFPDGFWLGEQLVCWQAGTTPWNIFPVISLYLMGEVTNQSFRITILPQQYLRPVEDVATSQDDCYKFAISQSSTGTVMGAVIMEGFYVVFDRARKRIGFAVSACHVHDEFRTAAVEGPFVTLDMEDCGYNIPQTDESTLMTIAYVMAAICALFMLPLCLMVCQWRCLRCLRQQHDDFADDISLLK

IC50 (BACE1 [1]) | IC50 (Cathepsin D) | IC50 (BACE1 [3]) | SMILES | IC50 [2, 4] | IC50 [2]
119 nM | > 30000 nM | 9.8 nM | C[C@@]1(c2cc(NC(=O)c3ccc(F)cn3)ccc2F)CC2(COC2)SC(N)=N1 [Compound 9-146, (S)—N-(3-(6-amino-8-methyl-2-oxa-5-thia-7-azaspiro[3.5]non-6-en-8-yl)-4-fluorophenyl)-5-fluoropicolinamide] | 22 nM | 
48 nM | > 30000 nM | 9 nM | CC1(c2cc(NC(=O)c3ccc(C#N)cn3)ccc2F)CC2(CCOCC2)OC(N)=N1 (stereo not shown) [Compound 9-139, N-(3-(2-amino-4-methyl-1,9-dioxa-3-azaspiro[5.5]undec-2-en-4-yl)-4-fluorophenyl)-5-cyanopicolinamide] | 5 nM | 
496 nM | > 30000 nM | 34 nM | Cc1nc(C(=O)Nc2ccc(F)c(C3(C)N=C(N)OC4(CCC4)C3(F)F)c2)co1 (stereo not shown) [Compound 9-165, N-(3-(6-amino-9,9-difluoro-8-methyl-5-oxa-7-azaspiro[3.5]non-6-en-8-yl)-4-fluorophenyl)-2-methyloxazole-4-carboxamide] | 176 nM | 
113 nM | > 30000 nM | 7.5 nM | C[C@@]1(c2cc(NC(=O)c3ccc(Cl)cn3)ccc2F)CC2(CC2)OC(N)=N1 [Compound 9-154, (S)—N-(3-(5-amino-7-methyl-4-oxa-6-azaspiro[2.5]oct-5-en-7-yl)-4-fluorophenyl)-5-chloropicolinamide] | 20 nM | 
281 nM | > 30000 nM | 10.5 nM | COc1cnc(C(=O)Nc2ccc(F)c([C@]3(C)CC4(CCC4)OC(N)=N3)c2)cn1 [Compound 9-135, (S)—N-(3-(6-amino-8-methyl-5-oxa-7-azaspiro[3.5]non-6-en-8-yl)-4-fluorophenyl)-5-methoxypyrazine-2-carboxamide] | 27 nM | 
66 nM | > 30000 nM | 19.5 nM | CC1(c2cc(NC(=O)c3ccc(Cl)cn3)ccc2F)N=C(N)OC2(CCC2)C1(F)F (stereo not shown) [Compound 9-160, N-(3-(6-amino-9,9-difluoro-8-methyl-5-oxa-7-azaspiro[3.5]non-6-en-8-yl)-4-fluorophenyl)-5-chloropicolinamide] | 268 nM | 

More lines, now with the values behind:

SMILES | IC50 (BACE1 [1]) | IC50 (Cathepsin D) | IC50 (BACE1 [3]) | IC50 [2, 4] | IC50 [2]
CC1(c2cc(NC(=O)c3ccc(F)cn3)ccc2F)N=C(N)OC2(CCOCC2)C1(F)F (stereo not shown) [Compound 9-155, N-(3-(2-amino-5,5-difluoro-4-methyl-1,9-dioxa-3-azaspiro[5.5]undec-2-en-4-yl)-4-fluorophenyl)-5-fluoropicolinamide] | 277 nM | > 30000 nM | 31 nM | 177 nM | 
C[C@@]1(c2cc(NC(=O)c3ccc(F)cn3)ccc2F)CC2(CCC(F)(F)CC2)OC(N)=N1 [Compound 9-123, (S)—N-(3-(2-amino-9,9-difluoro-4-methyl-1-oxa-3-azaspiro[5.5]undec-2-en-4-yl)-4-fluorophenyl)-5-fluoropicolinamide] | 270 nM | > 30000 nM | 8.7 nM | 19 nM | 
CC#Cc1cncc(-c2csc([C@@]3(C)CC4(CCOCC4)OC(N)=N3)c2)c1 [Compound 8-105, (R)-4-methyl-4-(4-(5-(prop-1-ynyl)pyridin-3-yl)thiophen-2-yl)-1,9-dioxa-3-azaspiro[5.5]undec-2-en-2-amine] | 84900 nM | 5250 nM | 1330 nM |  | 7470 nM
CC#Cc1cncc(-c2csc(C3(C)CC4(CCOCC4)OC(N)=N3)c2)c1 (stereo not shown) [Compound 8-102, 4-methyl-4-(4-(5-(prop-1-ynyl)pyridin-3-yl)thiophen-2-yl)-1,9-dioxa-3-azaspiro[5.5]undec-2-en-2-amine] | 2290 nM | 4430 nM | 69 nM |  | 365 nM
CC1(c2cc(NC(=O)c3ccc(Cl)cn3)ccc2F)CC2(CCOCC2)OC(N)=N1 (stereo not shown) [Compound 9-121, N-(3-(2-amino-4-methyl-1,9-dioxa-3-azaspiro[5.5]undec-2-en-4-yl)-4-fluorophenyl)-5-chloropicolinamide] | 73 nM | > 30000 nM | 9 nM |  | 6 nM
CCCn1cc(-c2ccc(F)c(C3(C)CC4(CCOCC4)OC(N)=N3)c2)cn1 (stereo not shown) [Compound 8-107, 4-(2-fluoro-5-(1-propyl-1H-pyrazol-4-yl)phenyl)-4-methyl-1,9-dioxa-3-azaspiro[5.5]undec-2-en-2-amine] | 34100 nM | 20800 nM | 1680 nM | 1720 nM | 
C[C@@]1(c2cc(NC(=O)c3ccc(Cl)cn3)ccc2F)CC2(CCC2)OC(N)=N1 [Compound 9-129, (S)—N-(3-(6-amino-8-methyl-5-oxa-7-azaspiro[3.5]non-6-en-8-yl)-4-fluorophenyl)-5-chloropicolinamide] | 107 nM | > 30000 nM | 8.3 nM | 37 nM | 
C[C@]1(c2cc(NC(=O)c3ccc(C#N)cn3)ccc2F)N=C(N)OC2(CCC2)C1(F)F [Compound 9-162, (R)—N-(3-(6-amino-9,9-difluoro-8-methyl-5-oxa-7-azaspiro[3.5]non-6-en-8-yl)-4-fluorophenyl)-5-cyanopicolinamide] | 40 nM | > 30000 nM | 15 nM | 39 nM | 
CC#Cc1cncc(-c2ccc(F)c([C@]3(C)CC4(CCC4)OC(N)=N3)c2)c1 [Compound 8-111, (S)-8-(2-fluoro-5-(5-(prop-1-ynyl)pyridin-3-yl)phenyl)-8-methyl-5-oxa-7-azaspiro[3.5]non-6-en-6-amine] | 3510 nM | 5080 nM | 88 nM | 391 nM | 
C[C@@]1(c2cc(NC(=O)c3ncc(Cl)cc3F)ccc2F)CC2(CCC(F)(F)CC2)OC(N)=N1 [Compound 9-133, (S)—N-(3-(2-amino-9,9-difluoro-4-methyl-1-oxa-3-azaspiro[5.5]undec-2-en-4-yl)-4-fluorophenyl)-5-chloro-3-fluoropicolinamide] | 16 nM | > 30000 nM | 9 nM | 16 nM | 
C[C@]1(c2cc(NC(=O)c3ccc(F)cn3)ccc2F)N=C(N)OC2(CCOCC2)C1(F)F [Compound 9-157, (R)—N-(3-(2-amino-5,5-difluoro-4-methyl-1,9-dioxa-3-azaspiro[5.5]undec-2-en-4-yl)-4-fluorophenyl)-5-fluoropicolinamide] | 300 nM | > 30000 nM | 45 nM | 166 nM | 
C[C@@]1(c2cc(NC(=O)c3ccc(Cl)cn3)ccc2F)CC2(CCC(F)(F)CC2)OC(N)=N1 [Compound 9-124, (S)—N-(3-(2-amino-9,9-difluoro-4-methyl-1-oxa-3-azaspiro[5.5]undec-2-en-4-yl)-4-fluorophenyl)-5-chloropicolinamide] | 60 nM | > 30000 nM | 4.5 nM | 11 nM | 
C[C@@]1(c2cc(NC(=O)c3ccc(C#N)cn3)ccc2F)CC2(CCC2)OC(N)=N1 [Compound 9-130, (S)—N-(3-(6-amino-8-methyl-5-oxa-7-azaspiro[3.5]non-6-en-8-yl)-4-fluorophenyl)-5-cyanopicolinamide] | 46 nM | > 30000 nM | 6 nM | 5.4 nM | 
